Source: the NIST ThermoML archive (doi:10.1021/je100083w)

Details: Liquid, Bellows volumetry

O [water]
Details	specific volume [m3/kg]
253.56 K, 298200 kPa	0.0008917
253.56 K, 325300 kPa	0.0008857
253.56 K, 349800 kPa	0.0008804
253.58 K, 223600 kPa	0.0009109
253.58 K, 223700 kPa	0.000911
253.58 K, 273300 kPa	0.0008978
253.58 K, 273600 kPa	0.0008977
253.58 K, 323500 kPa	0.000886
253.6 K, 249400 kPa	0.0009039
253.6 K, 298400 kPa	0.0008918
253.61 K, 248900 kPa	0.0009041
253.63 K, 349100 kPa	0.0008803
253.64 K, 223700 kPa	0.000911
253.64 K, 248300 kPa	0.0009041
253.65 K, 299600 kPa	0.000891
253.67 K, 349800 kPa	0.00088
253.68 K, 273300 kPa	0.0008975
253.69 K, 325300 kPa	0.0008852
253.83 K, 323300 kPa	0.0008861
253.83 K, 349500 kPa	0.0008803
253.86 K, 273400 kPa	0.0008977
253.86 K, 298200 kPa	0.0008918
253.87 K, 248600 kPa	0.0009042
253.9 K, 223600 kPa	0.000911
258.37 K, 198400 kPa	0.00092
258.37 K, 248400 kPa	0.0009059
258.38 K, 274900 kPa	0.0008992
258.4 K, 174000 kPa	0.0009274
258.41 K, 223300 kPa	0.0009127
258.45 K, 299600 kPa	0.0008933
258.46 K, 348900 kPa	0.0008821
258.52 K, 323300 kPa	0.0008877
258.52 K, 324100 kPa	0.0008879
258.53 K, 275300 kPa	0.0008991
258.54 K, 249300 kPa	0.0009057
258.54 K, 298500 kPa	0.0008935
258.55 K, 225000 kPa	0.0009123
258.58 K, 174100 kPa	0.0009275
258.58 K, 349500 kPa	0.0008815
258.59 K, 199300 kPa	0.0009197
258.59 K, 223500 kPa	0.0009124
258.6 K, 198200 kPa	0.0009199
258.6 K, 248400 kPa	0.0009053
258.6 K, 273300 kPa	0.0008992
258.6 K, 323400 kPa	0.0008873
258.6 K, 348800 kPa	0.0008828
258.61 K, 198500 kPa	0.0009196
258.61 K, 223400 kPa	0.0009121
258.61 K, 299200 kPa	0.0008928
258.64 K, 223300 kPa	0.0009126
258.64 K, 248500 kPa	0.0009056
258.65 K, 248300 kPa	0.0009047
258.65 K, 274500 kPa	0.0008977
258.65 K, 299500 kPa	0.0008914
258.66 K, 198400 kPa	0.0009199
258.67 K, 174000 kPa	0.0009274
258.68 K, 173500 kPa	0.0009277
258.68 K, 223300 kPa	0.0009118
258.7 K, 174400 kPa	0.0009274
258.75 K, 199500 kPa	0.000919
258.76 K, 173800 kPa	0.0009274
263.51 K, 299100 kPa	0.0008953
263.52 K, 350000 kPa	0.0008839
263.58 K, 298900 kPa	0.0008957
263.6 K, 249800 kPa	0.0009078
263.61 K, 248800 kPa	0.0009077
263.62 K, 149500 kPa	0.0009371
263.64 K, 198700 kPa	0.0009216
263.64 K, 248800 kPa	0.0009078
263.64 K, 298000 kPa	0.0008957
263.64 K, 349900 kPa	0.0008842
263.65 K, 198400 kPa	0.0009219
263.69 K, 149400 kPa	0.0009369
263.69 K, 198600 kPa	0.0009216
263.69 K, 349100 kPa	0.0008847
263.75 K, 149200 kPa	0.000937
268.42 K, 99500 kPa	0.0009558
268.47 K, 149200 kPa	0.0009384
268.47 K, 248700 kPa	0.0009095
268.47 K, 300200 kPa	0.000897
268.47 K, 348900 kPa	0.0008867
268.48 K, 199300 kPa	0.0009231
268.48 K, 298400 kPa	0.0008977
268.48 K, 349100 kPa	0.0008861
268.51 K, 149700 kPa	0.0009382
268.51 K, 249100 kPa	0.0009096
268.52 K, 149700 kPa	0.0009382
268.52 K, 198400 kPa	0.0009234
268.52 K, 249000 kPa	0.0009097
268.53 K, 198800 kPa	0.0009234
268.55 K, 99400 kPa	0.0009559
268.55 K, 298900 kPa	0.0008975
268.58 K, 99800 kPa	0.0009557
268.6 K, 348900 kPa	0.0008866
273.32 K, 69100 kPa	0.0009686
273.38 K, 298800 kPa	0.0008991
273.4 K, 349400 kPa	0.0008876
273.44 K, 149100 kPa	0.0009398
273.46 K, 99300 kPa	0.0009569
273.48 K, 69100 kPa	0.0009688
273.51 K, 199000 kPa	0.0009249
273.52 K, 69100 kPa	0.0009682
273.52 K, 149000 kPa	0.0009392
273.52 K, 249000 kPa	0.0009109
273.53 K, 99100 kPa	0.0009564
273.55 K, 198900 kPa	0.0009242
273.56 K, 98600 kPa	0.0009574
273.57 K, 149100 kPa	0.00094
273.57 K, 249100 kPa	0.0009117
273.63 K, 249300 kPa	0.000912
273.65 K, 298900 kPa	0.0008999
273.67 K, 199000 kPa	0.0009252
273.68 K, 348800 kPa	0.0008889
273.74 K, 298900 kPa	0.0009003
273.82 K, 350400 kPa	0.0008893
283.33 K, 199000 kPa	0.000928
283.36 K, 69000 kPa	0.0009704
283.39 K, 298700 kPa	0.0009035
283.43 K, 249000 kPa	0.000915
283.43 K, 349100 kPa	0.0008928
283.47 K, 199000 kPa	0.0009281
283.48 K, 149100 kPa	0.0009425
283.49 K, 149300 kPa	0.0009423
283.5 K, 69200 kPa	0.0009702
283.5 K, 248900 kPa	0.0009152
283.51 K, 98900 kPa	0.0009592
283.51 K, 99000 kPa	0.0009591
283.52 K, 148800 kPa	0.0009426
283.53 K, 198900 kPa	0.000928
283.54 K, 69000 kPa	0.0009703
283.54 K, 249100 kPa	0.0009148
283.56 K, 299300 kPa	0.0009032
283.6 K, 299000 kPa	0.0009038
283.62 K, 349300 kPa	0.0008926
283.7 K, 99000 kPa	0.0009592
283.72 K, 348000 kPa	0.0008941
293.2 K, 249000 kPa	0.0009188
293.22 K, 299000 kPa	0.0009073
293.23 K, 149200 kPa	0.0009458
293.25 K, 199000 kPa	0.0009316
293.28 K, 99300 kPa	0.0009619
293.31 K, 349200 kPa	0.000897
293.34 K, 349300 kPa	0.0008968
293.35 K, 69300 kPa	0.0009728
293.38 K, 299400 kPa	0.0009073
293.39 K, 199400 kPa	0.0009315
293.39 K, 249000 kPa	0.0009189
293.4 K, 99100 kPa	0.000962
293.41 K, 149100 kPa	0.0009458
293.42 K, 68900 kPa	0.0009729
293.46 K, 199100 kPa	0.0009322
293.47 K, 99200 kPa	0.0009625
293.49 K, 148800 kPa	0.0009465
293.5 K, 100 kPa	0.001002
293.52 K, 248900 kPa	0.0009196
293.53 K, 100 kPa	0.001002
293.53 K, 349200 kPa	0.0008974
293.54 K, 299000 kPa	0.000908
293.55 K, 100 kPa	0.001002
293.6 K, 69200 kPa	0.0009732
303.35 K, 98500 kPa	0.0009655
303.37 K, 69200 kPa	0.0009758
303.4 K, 98900 kPa	0.0009651
303.4 K, 148900 kPa	0.000949
303.41 K, 198900 kPa	0.0009347
303.42 K, 68900 kPa	0.0009761
303.42 K, 69800 kPa	0.0009757
303.43 K, 248900 kPa	0.000922
303.48 K, 99200 kPa	0.0009653
303.48 K, 149000 kPa	0.0009492
303.49 K, 299100 kPa	0.0009104
303.51 K, 149100 kPa	0.0009494
303.52 K, 349300 kPa	0.0008999
303.55 K, 299100 kPa	0.000911
303.56 K, 199000 kPa	0.000935
303.57 K, 198800 kPa	0.0009353
303.57 K, 248800 kPa	0.0009226
303.57 K, 249300 kPa	0.0009222
303.61 K, 299200 kPa	0.0009108
303.63 K, 349200 kPa	0.0009004
303.72 K, 349100 kPa	0.0009003
313.38 K, 149300 kPa	0.0009528
313.38 K, 349300 kPa	0.0009051
313.39 K, 69100 kPa	0.0009801
313.39 K, 98800 kPa	0.000969
313.39 K, 148800 kPa	0.0009534
313.4 K, 69100 kPa	0.0009799
313.4 K, 98600 kPa	0.0009695
313.4 K, 199200 kPa	0.0009386
313.41 K, 99000 kPa	0.0009696
313.42 K, 149000 kPa	0.0009538
313.42 K, 198900 kPa	0.0009393
313.43 K, 69000 kPa	0.0009796
313.44 K, 249300 kPa	0.0009265
313.44 K, 299600 kPa	0.0009155
313.44 K, 348900 kPa	0.000904
313.45 K, 248900 kPa	0.0009271
313.46 K, 199100 kPa	0.0009397
313.46 K, 249200 kPa	0.0009259
313.46 K, 299400 kPa	0.0009151
313.46 K, 349500 kPa	0.0009046
313.48 K, 299700 kPa	0.0009144
323.04 K, 248700 kPa	0.0009318
323.09 K, 198800 kPa	0.0009435
323.13 K, 299200 kPa	0.0009196
323.17 K, 249000 kPa	0.0009307
323.17 K, 349400 kPa	0.0009091
323.19 K, 299100 kPa	0.0009191
323.21 K, 349000 kPa	0.0009095
323.25 K, 248900 kPa	0.0009312
323.26 K, 298400 kPa	0.0009203
323.28 K, 199000 kPa	0.0009438
323.3 K, 149300 kPa	0.0009578
323.31 K, 99100 kPa	0.0009737
323.33 K, 69200 kPa	0.0009842
323.34 K, 198300 kPa	0.0009446
323.34 K, 349300 kPa	0.0009085
323.35 K, 68300 kPa	0.0009846
323.35 K, 149000 kPa	0.0009578
323.37 K, 99600 kPa	0.0009736
323.41 K, 149200 kPa	0.0009584
323.43 K, 99200 kPa	0.0009742
323.46 K, 68800 kPa	0.0009848
